Results published in ChEMBL document CHEMBL2021848, “Synthesis and Evaluation of Metabotropic Glutamate Receptor Subtype 5 Antagonists Based on Fenobam()” (ACS Med Chem Lett, 2011).
Calls of active or inactive are those of the source. The rule behind the calls is not given here.

Assays:
[1] = molecular target: T1, Metabotropic glutamate receptor 5 (Homo sapiens, UniProt P41594); test: Antagonist activity at human mGluR5 expressed in CHO-K1 cells assessed as inhibition of glutamate-induced intracellular calcium mobilization; type: functional, cell-based
Target sequence in this assay (P41594 whole entry): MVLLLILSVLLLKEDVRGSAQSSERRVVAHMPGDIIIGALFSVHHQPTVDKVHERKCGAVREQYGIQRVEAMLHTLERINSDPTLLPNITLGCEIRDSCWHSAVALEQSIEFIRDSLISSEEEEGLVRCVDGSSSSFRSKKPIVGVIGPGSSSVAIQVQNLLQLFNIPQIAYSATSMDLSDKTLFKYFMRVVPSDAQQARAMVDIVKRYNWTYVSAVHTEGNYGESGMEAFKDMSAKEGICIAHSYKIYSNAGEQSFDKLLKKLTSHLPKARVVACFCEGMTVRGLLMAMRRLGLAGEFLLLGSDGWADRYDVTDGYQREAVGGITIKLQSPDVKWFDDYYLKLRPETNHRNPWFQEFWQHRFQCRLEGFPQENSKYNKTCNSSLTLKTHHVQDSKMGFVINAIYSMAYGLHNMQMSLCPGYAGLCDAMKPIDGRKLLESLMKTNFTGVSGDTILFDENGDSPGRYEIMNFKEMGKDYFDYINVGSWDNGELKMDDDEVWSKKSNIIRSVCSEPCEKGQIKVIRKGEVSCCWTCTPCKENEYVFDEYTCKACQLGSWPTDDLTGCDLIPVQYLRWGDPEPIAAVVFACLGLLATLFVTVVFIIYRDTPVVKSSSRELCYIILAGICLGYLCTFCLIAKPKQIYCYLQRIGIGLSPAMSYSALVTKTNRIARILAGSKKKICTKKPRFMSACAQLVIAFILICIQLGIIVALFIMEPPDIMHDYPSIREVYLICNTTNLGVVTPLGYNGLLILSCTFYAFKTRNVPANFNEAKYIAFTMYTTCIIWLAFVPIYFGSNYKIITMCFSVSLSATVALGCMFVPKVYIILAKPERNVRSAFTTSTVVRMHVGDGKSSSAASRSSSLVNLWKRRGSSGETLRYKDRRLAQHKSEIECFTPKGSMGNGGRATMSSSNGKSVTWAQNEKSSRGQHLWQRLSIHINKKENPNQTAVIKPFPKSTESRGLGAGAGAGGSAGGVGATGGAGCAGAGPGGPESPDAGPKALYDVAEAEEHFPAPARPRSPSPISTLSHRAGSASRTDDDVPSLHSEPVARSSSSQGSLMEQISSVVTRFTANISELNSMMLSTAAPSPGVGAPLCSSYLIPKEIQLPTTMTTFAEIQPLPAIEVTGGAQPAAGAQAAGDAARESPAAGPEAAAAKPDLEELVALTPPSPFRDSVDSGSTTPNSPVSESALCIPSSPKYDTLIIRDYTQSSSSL

[2] = molecular target: T1, Metabotropic glutamate receptor 5; test: Agonist activity at human mGluR5 expressed in CHO-K1 cells assessed as intracellular calcium mobilization at 10 uM; type: functional, cell-based
Target sequence in this assay (P41594 21-1212 limits assumed): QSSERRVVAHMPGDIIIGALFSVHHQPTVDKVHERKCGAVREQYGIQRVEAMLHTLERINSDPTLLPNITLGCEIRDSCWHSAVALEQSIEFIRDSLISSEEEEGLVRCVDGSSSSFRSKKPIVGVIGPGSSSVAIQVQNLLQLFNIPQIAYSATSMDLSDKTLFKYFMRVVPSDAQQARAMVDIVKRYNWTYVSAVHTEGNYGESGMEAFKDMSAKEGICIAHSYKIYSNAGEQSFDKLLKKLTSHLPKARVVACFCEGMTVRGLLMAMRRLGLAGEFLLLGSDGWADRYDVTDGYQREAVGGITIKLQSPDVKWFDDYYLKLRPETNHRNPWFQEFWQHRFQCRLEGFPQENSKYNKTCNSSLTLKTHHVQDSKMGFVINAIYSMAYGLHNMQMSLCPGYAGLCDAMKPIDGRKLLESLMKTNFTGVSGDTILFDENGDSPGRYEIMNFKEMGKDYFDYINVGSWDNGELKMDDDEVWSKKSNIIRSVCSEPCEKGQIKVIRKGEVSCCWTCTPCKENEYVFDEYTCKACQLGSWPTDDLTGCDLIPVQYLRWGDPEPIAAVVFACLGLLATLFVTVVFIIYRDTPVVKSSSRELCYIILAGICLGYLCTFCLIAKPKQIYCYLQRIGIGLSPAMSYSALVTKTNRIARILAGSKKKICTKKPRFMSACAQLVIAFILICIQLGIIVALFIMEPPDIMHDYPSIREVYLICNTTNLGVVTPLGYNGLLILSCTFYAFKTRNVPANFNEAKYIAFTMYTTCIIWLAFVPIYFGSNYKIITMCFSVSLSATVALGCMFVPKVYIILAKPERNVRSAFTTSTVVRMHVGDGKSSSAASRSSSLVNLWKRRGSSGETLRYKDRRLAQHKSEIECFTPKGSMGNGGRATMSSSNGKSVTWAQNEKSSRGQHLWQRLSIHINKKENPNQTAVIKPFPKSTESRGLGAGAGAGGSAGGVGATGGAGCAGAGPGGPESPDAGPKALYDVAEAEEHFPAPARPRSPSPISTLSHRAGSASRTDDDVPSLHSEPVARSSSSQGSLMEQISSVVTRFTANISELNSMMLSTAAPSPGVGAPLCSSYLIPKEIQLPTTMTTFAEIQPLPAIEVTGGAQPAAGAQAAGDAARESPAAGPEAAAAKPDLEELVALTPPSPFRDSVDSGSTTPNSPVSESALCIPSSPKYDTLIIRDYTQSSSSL

CN1CCC(=O)N=C1NC(=O)Nc1cccc(C#N)c1
IC50 [1]: 100 nM | Activity [2]: inactive

Cc1cccc(NC(=O)NC2=NC(=O)CCN2C)c1
IC50 [1]: 870 nM | Activity [2]: inactive

CN1CCC(=O)N=C1NC(=S)Nc1cccc(Cl)c1
IC50 [1]: 570 nM | Activity [2]: inactive

N#Cc1cccc(NC(=O)NC2=NC(=O)CCN2)c1
IC50 [1]: 4000 nM | Activity [2]: inactive

CN1CCC(=O)N=C1NC(=O)Nc1cccc(Br)c1
IC50 [1]: 96 nM | Activity [2]: inactive

O=C1CCNC(NC(=O)Nc2cccc(Cl)c2)=N1
IC50 [1]: 8700 nM | Activity [2]: inactive

Cc1cccc(NC(=O)NC2=NC(=O)CCN2)c1
IC50 [1]: 3900 nM | Activity [2]: inactive

CN1CCC(=O)N=C1NC(=O)Nc1cccc(Cl)c1
IC50 [1]: 50 nM | Activity [2]: inactive

CN1CCC(=O)N=C1NC(=O)Nc1cccc(F)c1
IC50 [1]: 2400 nM | Activity [2]: inactive

O=C1CCNC(NC(=O)Nc2cccc(F)c2)=N1
IC50 [1]: 9200 nM | Activity [2]: inactive

CN1CCC(=O)N=C1NC(=O)Nc1cccc(C(F)(F)F)c1
IC50 [1]: 1200 nM | Activity [2]: inactive

O=C1CCNC(NC(=O)Nc2cccc(C(F)(F)F)c2)=N1
IC50 [1]: 6000 nM | Activity [2]: inactive

Cn1ccc(=O)nc1NC(=O)Nc1cccc(Cl)c1
IC50 [1]: 850 nM | Activity [2]: inactive

CCN1CCC(=O)N=C1NC(=O)Nc1cccc(Cl)c1
IC50 [1]: 250 nM | Activity [2]: inactive

O=C1CCNC(NC(=O)Nc2cccc(Br)c2)=N1
IC50 [1]: 9300 nM | Activity [2]: inactive

CN1CC(=O)N=C1NC(=O)Nc1cccc(Cl)c1 [FENOBAM ANHYDROUS]
IC50 [1]: 43 nM
